# Counter-ions that a name gives are not always drawn. Like-named read-outs stand apart in the source and are kept apart here.
# Columns and labels:
# [1] = tested on: IEC-6 (rat intestinal epithelium); experiment: Cytotoxicity to normal rodent cells in culture; format: cell-based
# Experimental: (§1) The cell lines are used and maintained as monolayer cultures in Minimal Essential Media (Grand Island Biological Co., Grand Island, N.Y.) supplemented with 10% fetal calf serum in a 5% CO2 humidified incubator at 37° C. Various concentrations of a Formula (I) compound under sterile conditions were allowed to react for 2 hours followed by aspiration of medium or were exposed continuously. Plates are incubated for 7 days at 37° C. in a CO2 incubator. Medium was aspirated and cells were fixed and stained with ethanol and Geisma stain. The surviving cell population was determined by scanning the plates with an image analyzer. The percent inhibition of proliferation was determined relative to cells incubated in the absence of drug and the 50 percent inhibitory concentration (IC50) was determined by interpolation.
# [2] = tested on: NRK52E (rat kidney epithelium); experiment: Cytotoxicity to normal rodent cells in culture; format: cell-based; conditions: NRK-52E
# Experimental: as §1
# [3] = tested on: sc colon adenocarcinoma 38
# Experimental: Inhibition of tumor growth (TGI) is based on mean tumor volume of groups of 7 or 8 mice relative to untreated controls. Tumors were measured between Days 12 and 19 (except Day 24 for Colon 51 and Day 31 for Colon 38).
# Tumors used in these studies are maintained by serial transplantation in syngeneic strains of mice C57BL/6 for Lewis lung carcinoma, B16 melanoma and its F10 subline, M5076 sarcoma and colon adenocarcinoma 38; BALB/c for colon carcinoma 26, ADJ-PC6 plasmacytoma Madison lung carcinoma and colon adenocarcinoma 51, C3H for mammary adenocarcinoma 16/c. With the exception of the M5076 sarcoma, which is maintained as a i.p ascites cell suspension, all of the tumors were serially transplanted as s.c. solid tumors.
# For therapeutic trials, tumors were aseptically removed from donor mice and prepared for implantation s.c. into test animals. The test animals for Lewis lung carcinoma, B16 melanoma and its F10 subline, M5076 sarcoma and colon adenocarcinoma 38 are syngeneic female F1 hybrid B6D2F mice (C57B1/6×DBA/2). ADJ-PC6 plasmacytoma and colon carcinoma 26 are evaluated in female BALB/c mice. Madison lung carcinoma and colon adenocarcinoma 51 are evaluated in syngeneic female F1 hybrid CD2F1 mice (BALB/c×DBA/2). Mammary adenocarcinoma 16/c is evaluated in female C3H mice. The inoculum varies with the tumor. Colon adenocarcinomas 38 is implanted as 2 mm fragments by trochar. M5076 sarcoma and ADJ-PC6 plasmacytoma are implanted as cell suspensions at 5×10^6 and 2×10^6 cells per mouse, respectively. Colon carcinoma 26, colon adenocarcinoma 51, Lewis lung carcinoma, Madison lung carcinoma and B16 melanoma and its F10 subline are implanted as tumor breis prepared as described above in a volume of 0.5 ml. The brei concentration was 10 percent (w:v) except for colon carcinoma 26 for which the brei concentration was 5 percent (w:v). After tumor inoculation, mice are randomized to treatment groups of 7 or 8 mice. In each experiment, there are three groups of untreated control mice.
# Drugs are dissolved or suspended in appropriate aqueous vehicles and given by a variety of routes of administration and treatment schedules over a range of dosage levels. Animals are housed in shoebox cages and are monitored daily for mortality. […] Time for tumor measurement is dependent on the different rates of tumor growth of the different tumors: the most rapidly growing tumors such as the Lewis and Madison lung tumors, B16 melanoma and its F10 subline were measured between Days 12 and 16. The slower growing tumors were measured at later time points--17 days for M5076 sarcoma, 16 or 19 days for mammary adenocarcinoma 16/c, 19 days for ADJ-PC6 plasmacytoma and colon carcinoma 26, 24 days for colon adenocarcinoma 51, and 31 days for colon adenocarcinoma 38.
# [4] = tested on: sc colon carcinoma 26; experiment: sc-implanted colon carcinoma 26 in mice; format: in vivo, mouse; conditions: for Tumor growth inhibition (TGI): sc Colon 26, B/ip (Days 1, 5, 9 and 13)
# Excerpt: (§2) The inoculum varies with the tumor.
# [5] = tested on: CACO-2; experiment: Cytotoxicity to tumor cells in culture; format: cell-based; conditions: Homo sapiens
# Experimental: as §1
# [6] = tested on: HT-29; experiment: Cytotoxicity to tumor cells in culture; format: cell-based; conditions: Homo sapiens
# Experimental: as §1
# [7] = tested on: WIDR; experiment: Cytotoxicity to tumor cells in culture; format: cell-based; conditions: Homo sapiens
# Experimental: as §1
# [8] = tested on: DLD-1; experiment: Cytotoxicity to tumor cells in culture; format: cell-based; conditions: Homo sapiens
# Experimental: as §1
# [9] = tested on: B16 Melanoma; experiment: Cytotoxicity to tumor cells in culture; format: cell-based; conditions: Mus musculus, continuous exposure
# Experimental: as §1
# [10] = tested on: SW-620; experiment: Cytotoxicity to tumor cells in culture; format: cell-based; conditions: Homo sapiens
# Experimental: as §1
# [11] = tested on: L1210 Leukemia; experiment: Cytotoxicity to tumor cells in culture; format: cell-based; conditions: Mus musculus, 2 hr exposure
# Experimental: as §1
# [12] = tested on: K12/Tr Colon Carcinoma; experiment: Cytotoxicity to tumor cells in culture; format: cell-based; conditions: K12/Tr rat colon carcinoma
# Experimental: as §1
# [13] = tested on: LOVO; experiment: Cytotoxicity to tumor cells in culture; format: cell-based; conditions: Homo sapiens
# Experimental: as §1
# [14] = tested on: SKCO-1; experiment: Cytotoxicity to tumor cells in culture; format: cell-based; conditions: Homo sapiens
# Experimental: as §1
# [15] = tested on: SW-948; experiment: Cytotoxicity to tumor cells in culture; format: cell-based; conditions: Homo sapiens
# Experimental: as §1
# [16] = tested on: eight cultured human colon tumor cell lines; experiment: Cytotoxicity in series of eight cultured human colon tumor cell lines; format: cell-based
# Experimental: For a brief exposure (2 hours) to the drug, the 50 percent inhibitory concentration ranged from 0.12-2.1 μg/ml.
# as §1
# [17] = tested on: iv L1210 leukemia; conditions: mouse, in vivo
# Excerpt: Animals were inoculated iv with 10^6 cells. Increase in lifespan (ILS) is based on median survival time of groups of 6 mice relative to untreated controls.
# The protocols utilized for the evaluation of the antitumor activity of Formula (I) compounds are well established and widely utilized by those skilled in the art of assessing the activity of drugs in preclinical tumor models. These studies generally follow the protocols established by the National Cancer Institute as described by Geran et al., Cancer Chemotherapy Reports, Part 3, Vol. 3, 1-103, 1972.
# Tumors used in these studies P388 leukemia, L1210 leukemia and Lewis lung carcinoma--are maintained by serial transplantation in syngeneic strains of mice, DBA/2 for the leukemias and C57B1/6 for Lewis lung carcinoma. The leukemias are serially transplanted i.p. as ascites cell suspensions while the Lewis lung carcinoma is serially transplanted as a s.c. solid tumor.
# For therapeutic trials, tumors were aseptically removed from donor mice and prepared as suspensions for implantation into test animals which for each tumor are syngeneic female F1 hybrid B6D2F1 mice (C57B1/6×DBA/2). The inoculum level varies with the type of tumor: P388 leukemia is inoculated at 10^6 cells per mouse, L1210 leukemia at 10^5 or 10^6 cells per mouse, and Lewis lung carcinoma at 0.25 ml of a 10 percent (w:v) brei. […] After tumor inoculation, mice are randomized to treatment groups of 6 to 8 mice each. In each experiment, there are three groups of untreated control mice.
# Drugs are dissolved or suspended in appropriate aqueous vehicles and given i.p. or i.v. on various treatment schedules over a range of dosage levels. Animals are housed in shoebox cages and monitored daily for mortality for 30 (L1210), 45 (P388) or 60 (Lewis lung) days.
# [18] = tested on: ip P388 leukemia; conditions: mouse, in vivo, ip
# [19] = tested on: sc colon adenocarcinoma 51; format: in vivo, mouse; conditions: for Tumor growth inhibition (TGI) / Mice without Palpable Tumors: sc Colon 51
# Excerpt: as §2
# [20] = tested on: ip B16 melanoma/F10 subline; conditions: mouse, in vivo; for Increase in lifespan (ILS): ip
# Excerpt: Tumors used in these studies--P388 leukemia and its doxorbicin--and mitoxanrone-resistant sublines, L1210 leukemia, B16 melanoma, B16 melanoma/F10 subline, M5076 sarcoma and colon carcinoma 26--are maintained by serial transplantation in syngeneic strains of mice. For the leukemias, these tumors are maintained in DBA/2 mice. The M5076 sarcoma, the B16 melanoma and its F10 subline are maintained in C57B1/6 mice and the colon sarcinoma 26 is maintained in BALB/c mice. The leukemias and the M5076 sarcoma are serially transplanted i.p. as ascites cell suspensions while the B16 melanoma lines and the colon carcinoma 26 are serially transplanted as s.c. solid tumors.
# For therapeutic trials, tumors are aseptically removed from donor mice and prepared as suspensions for implantation ip into test animals. The test animals for the colon carcinoma 26 are female BALB/c mice (20-25 gm). The test animals for the other tumor models are syngeneic female F1 hybrid B6D2F1 mice (C57B1/6 x DBA/2). The inoculum level varies with the type of tumor: P388 leukemia is inoculated at 10^6 cells per mouse, L1210 leukemia at 10^5 or 10^6 cells per mouse, M5076 sarcoma at 5×10^6 cells per mouse. For implantation of the B16 melanoma lines and the colon carcinoma 26, s.c. tumors from donor mice are minced and homogenized in loose fitting teflon glass homogenizer to give a tumor brei. The inoculum levels are 0.5 ml of a 10 percent (w:v) brei of the B16 melanoma lines and 0.5 ml of a 5 percent (w:v) brei of colon carcinoma 26. After tumor inoculation, mice randomized to treatment groups comprised of 6-8 mice each. In each experiment, there are three groups of untreated control mice. Drugs are dissolved or suspended in appropriate aqueous vehicles and given by a variety of routes and schedules of administration over a range of dose levels. Animals are housed in shoebox cages and are monitored daily for mortality for 30 (L1210), 45 (P388) or 60 (B16, M5076, colon 26) days.
# [21] = 2 hr exposure, read-out: IC50 2 Hr. Exposure
# [22] = continuous exposure, read-out: IC50 Continuous Exposure
# [23] = 2 hr exposure, 7-day incubation, read-out: IC50 2 Hr. Exposure
# [24] = 168 h, continuous 7-day exposure, read-out: IC50 Continuous Exposure
compound,measurement,setting,value
"CC[C@@]1(O)C(=O)OCc2c1cc1n(c2=O)Cc2cc3c(CN(C)C)c(O)ccc3nc2-1 [Compound No. 1S, (20 S) 9-Dimethylaminomethyl-10-hydroxycamptothecin Acetate Salt]",IC50,[1]; [21],3.9 µg/mL
same,IC50,[1]; [22],0.017 µg/mL
same,IC50,[2]; [21],1.2 µg/mL
same,IC50,[2]; [22],0.052 µg/mL
same,inhibition at two dose levels,"[3]; mouse, in vivo",> 90
same,Mice without Palpable Tumors,"[3]; mouse, in vivo, 0.78 mg/kg",2/7
same,Mice without Palpable Tumors,"[3]; mouse, in vivo, 1.3 mg/kg",4/7
same,Mice without Palpable Tumors,"[3]; mouse, in vivo, 2.2 mg/kg",4/7
same,Mice without Palpable Tumors,"[3]; mouse, in vivo, 3.6 mg/kg",6/7
same,Mice without Palpable Tumors,"[3]; mouse, in vivo, 6 mg/kg",5/7
same,Increase in Lifespan (ILS) or Inhibition of Tumor Growth (TGI),"[3]; mouse, in vivo, sc",96 % TGI
same,Tumor growth inhibition (TGI),"[3]; sc Colon 38, G/ip (Days 3, 10, 17 and 24), 3.1 mg/kg/injection",0%
same,Tumor growth inhibition (TGI),"[3]; sc Colon 38, G/ip (Days 3, 10, 17 and 24), 5.2 mg/kg/injection",0%
same,Tumor growth inhibition (TGI),"[3]; sc Colon 38, G/ip (Days 3, 10, 17 and 24), 8.6 mg/kg/injection",55%
same,Tumor growth inhibition (TGI),"[3]; sc Colon 38, G/ip (Days 3, 10, 17 and 24), 14 mg/kg/injection",78%
same,Tumor growth inhibition (TGI),"[3]; sc Colon 38, G/ip (Days 3, 10, 17 and 24), 24 mg/kg/injection",89%
same,Mice without Palpable Tumors,"[3]; sc Colon 38, G/ip, 3.1 mg/kg/injection",2/7
same,Mice without Palpable Tumors,"[3]; sc Colon 38, G/ip, 5.2 mg/kg/injection",1/7
same,Mice without Palpable Tumors,"[3]; sc Colon 38, G/ip, 8.6 mg/kg/injection",3/7
same,Mice without Palpable Tumors,"[3]; sc Colon 38, G/ip, 14 mg/kg/injection",5/8
same,Mice without Palpable Tumors,"[3]; sc Colon 38, G/ip, 24 mg/kg/injection",4/7
same,Tumor growth inhibition (TGI),"[3]; sc Colon 38, H/ip (every 3 hours x4 on Days 3, 10, 14 and 24), 0.78 mg/kg/injection",53%
same,Tumor growth inhibition (TGI),"[3]; sc Colon 38, H/ip (every 3 hours x4 on Days 3, 10, 14 and 24), 1.3 mg/kg/injection",68%
same,Tumor growth inhibition (TGI),"[3]; sc Colon 38, H/ip (every 3 hours x4 on Days 3, 10, 14 and 24), 2.2 mg/kg/injection",74%
same,Tumor growth inhibition (TGI),"[3]; sc Colon 38, H/ip (every 3 hours x4 on Days 3, 10, 14 and 24), 3.6 mg/kg/injection",93%
same,Tumor growth inhibition (TGI),"[3]; sc Colon 38, H/ip (every 3 hours x4 on Days 3, 10, 14 and 24), 6 mg/kg/injection",96%
same,inhibition of tumor growth at the maximally tolerated dose,"[4]; mouse, in vivo, sc",> 70
same,Tumor growth inhibition (TGI),[4]; 5 mg/kg/injection,39%
same,Tumor growth inhibition (TGI),[4]; 10 mg/kg/injection,72%
same,Tumor growth inhibition (TGI),[4]; 20 mg/kg/injection,toxic
same,Increase in Lifespan (ILS) or Inhibition of Tumor Growth (TGI),"[4]; sc Colon Carcinoma 26, optimal doses and optimal schedules",72 % TGI
same,IC50,[5]; [23],1.7 µg/mL
same,IC50,[5]; [24],0.075 µg/mL
same,IC50,[6]; [23],0.58 µg/mL
same,IC50,[6]; [24],0.016 µg/mL
same,IC50,[7]; [23],2.1 µg/mL
same,IC50,[7]; [24],0.025 µg/mL
same,IC50,[8]; [23],0.44 µg/mL
same,IC50,[8]; [24],0.015 µg/mL
same,IC50,[9],0.62 µg/mL
same,IC50,[10]; [23],0.12 µg/mL
same,IC50,[10]; [24],0.0065 µg/mL
same,IC50,[11],1.4 µg/mL
same,IC50,[12]; [21],3.9 µg/mL
same,IC50,[12]; [22],0.084 µg/mL
same,IC50,[13]; [23],0.58 µg/mL
same,IC50,[13]; [24],0.0097 µg/mL
same,IC50,"[14]; SK-CO-1, 2 hr exposure, 7-day incubation, read-out: IC50 2 Hr. Exposure",0.23 µg/mL
same,IC50,"[14]; SK-CO-1, 168 h, continuous 7-day exposure, read-out: IC50 Continuous Exposure",0.0039 µg/mL
same,IC50,"[15]; SW948, 2 hr exposure, 7-day incubation, read-out: IC50 2 Hr. Exposure",0.26 µg/mL
same,IC50,"[15]; SW948, 168 h, continuous 7-day exposure, read-out: IC50 Continuous Exposure",0.016 µg/mL
same,IC50,"[16]; 168 h, drug left in medium for full 7-day period, read-out: IC50 values, range over eight lines",0.0039 to 0.075 µg/mL
same,IC50,"[16]; brief exposure (2 hours), read-out: 50 percent inhibitory concentration, range over eight lines",0.12 to 2.1 µg/mL
same,ILS,[17]; 3.2 mg/kg,50%
same,Increase in lifespan (ILS),[17]; 3.2 mg/kg,57%
same,ILS,[17]; 5.4 mg/kg,67%
same,Increase in lifespan (ILS),[17]; 5.4 mg/kg,93%
same,ILS,[17]; 9 mg/kg,83%
same,Increase in lifespan (ILS),[17]; 9 mg/kg,136%
same,Increase in lifespan (ILS),[17]; 15 mg/kg,171%
same,Long-Term Survivors,[17]; 15 mg/kg,1/6
same,ILS,[17]; 25 mg/kg,toxic
same,Increase in lifespan (ILS),[17]; 25 mg/kg,toxic
same,Increase in Lifespan (ILS) or Inhibition of Tumor Growth (TGI),[17]; iv,Curative
same,Long-Term Survivors,"[17]; iv, 1.3 mg/kg",2/7
same,Long-Term Survivors,"[17]; iv, 2.2 mg/kg",1/7
same,Long-Term Survivors,"[17]; iv, 3.6 mg/kg",5/7
same,Long-Term Survivors,"[17]; iv, 24 mg/kg",4/7
same,Increase in Lifespan (ILS) or Inhibition of Tumor Growth (TGI),[18],Curative
same,long term survivors,[18],2/6
same,Long-Term Survivors,[18]; 15 mg/kg,4/6
same,Increase in lifespan (ILS),[18]; 30 mg/kg,toxic
same,Tumor growth inhibition (TGI),"[19]; G/ip (Days 3, 10, 17 and 24), 3.1 mg/kg/injection",34%
same,Tumor growth inhibition (TGI),"[19]; G/ip (Days 3, 10, 17 and 24), 5.2 mg/kg/injection",36%
same,Tumor growth inhibition (TGI),"[19]; G/ip (Days 3, 10, 17 and 24), 8.6 mg/kg/injection",53%
same,Tumor growth inhibition (TGI),"[19]; G/ip (Days 3, 10, 17 and 24), 14 mg/kg/injection",76%
same,Tumor growth inhibition (TGI),"[19]; G/ip (Days 3, 10, 17 and 24), 24 mg/kg/injection",88%
same,Mice without Palpable Tumors,"[19]; G/ip, 8.6 mg/kg/injection",1/8
same,Mice without Palpable Tumors,"[19]; G/ip, 14 mg/kg/injection",1/8
same,Mice without Palpable Tumors,"[19]; G/ip, 24 mg/kg/injection",3/8
same,Tumor growth inhibition (TGI),"[19]; H/ip (every 3 hours x4 on Days 3, 10, 14 and 24), 0.47 mg/kg/injection",37%
same,Tumor growth inhibition (TGI),"[19]; H/ip (every 3 hours x4 on Days 3, 10, 14 and 24), 0.78 mg/kg/injection",73%
same,Tumor growth inhibition (TGI),"[19]; H/ip (every 3 hours x4 on Days 3, 10, 14 and 24), 1.3 mg/kg/injection",88%
same,Tumor growth inhibition (TGI),"[19]; H/ip (every 3 hours x4 on Days 3, 10, 14 and 24), 2.2 mg/kg/injection",89%
same,Tumor growth inhibition (TGI),"[19]; H/ip (every 3 hours x4 on Days 3, 10, 14 and 24), 3.6 mg/kg/injection",92%
same,Mice without Palpable Tumors,"[19]; H/ip, 0.78 mg/kg/injection",1/8
same,Mice without Palpable Tumors,"[19]; H/ip, 1.3 mg/kg/injection",3/8
same,Mice without Palpable Tumors,"[19]; H/ip, 2.2 mg/kg/injection",4/8
same,Mice without Palpable Tumors,"[19]; H/ip, 3.6 mg/kg/injection",4/8
same,Increase in Lifespan (ILS) or Inhibition of Tumor Growth (TGI),"[19]; sc Colon Adenocarcinoma 51, optimal doses and optimal schedules",92 % TGI
same,increases in lifespan at two lower doses,[20],> 40
same,Increase in lifespan (ILS),[20]; 3.2 mg/kg,37%
same,Increase in lifespan (ILS),[20]; 5.4 mg/kg,63%
same,Increase in lifespan (ILS),[20]; 9 mg/kg,68%
same,Increase in lifespan (ILS),[20]; 25 mg/kg,toxic

# Source: patent publication US5004758A, “Water soluble camptothecin analogs useful for inhibiting the growth of animal tumor cells” (priority 1988, dated 1991)
